Laboratory results taken from ChEMBL document CHEMBL5444388, “Affinity Phenotypic Cellular Literature for EUbOPEN Chemogenomic Library” (2024).

How the values were obtained:
Format in all cases: functional, cell-based
Design in all cases: recommended concentration 100 nM
[1] = molecular target: Centromere-associated protein E (Homo sapiens) (UniProt Q02224); experiment: Affinity Phenotypic Cellular interaction: (Cell-growth inhibition assays (growth inhibitory effect colon cancer cell line SW1088)) EUB0000734a CENPE; settings: Affinity Phenotypic Cellular Source Knowledge https://pubmed.ncbi.nlm.nih.gov/20167803/
[2] = molecular target: Centromere-associated protein E (Homo sapiens) (UniProt Q02224); experiment: Affinity Phenotypic Cellular interaction: (Cell-growth inhibition assays (growth inhibitory effect colon cancer cell line SR)) EUB0000734a CENPE; settings: Affinity Phenotypic Cellular Source Knowledge https://pubmed.ncbi.nlm.nih.gov/20167803/
[3] = molecular target: Centromere-associated protein E (Homo sapiens) (UniProt Q02224); experiment: Affinity Phenotypic Cellular interaction: (Cell-growth inhibition assays (growth inhibitory effect colon cancer cell line Caki-2)) EUB0000734a CENPE; settings: Affinity Phenotypic Cellular Source Knowledge https://pubmed.ncbi.nlm.nih.gov/20167803/
[4] = molecular target: Centromere-associated protein E (Homo sapiens) (UniProt Q02224); experiment: Affinity Phenotypic Cellular interaction: (Cell-growth inhibition assays (growth inhibitory effect colon cancer cell line NCI-H2171)) EUB0000734a CENPE; settings: Affinity Phenotypic Cellular Source Knowledge https://pubmed.ncbi.nlm.nih.gov/20167803/
[5] = molecular target: Centromere-associated protein E (Homo sapiens) (UniProt Q02224); experiment: Affinity Phenotypic Cellular interaction: (Cell-growth inhibition assays (growth inhibitory effect colon cancer cell line SNU-398)) EUB0000734a CENPE; settings: Affinity Phenotypic Cellular Source Knowledge https://pubmed.ncbi.nlm.nih.gov/20167803/
[6] = molecular target: Centromere-associated protein E (Homo sapiens) (UniProt Q02224); experiment: Affinity Phenotypic Cellular interaction: (Cell-growth inhibition assays (growth inhibitory effect colon cancer cell line A2780)) EUB0000734a CENPE; settings: Affinity Phenotypic Cellular Source Knowledge https://pubmed.ncbi.nlm.nih.gov/20167803/
[7] = molecular target: Centromere-associated protein E (Homo sapiens) (UniProt Q02224); experiment: Affinity Phenotypic Cellular interaction: (Cell-growth inhibition assays (growth inhibitory effect colon cancer cell line MDA-MB-435)) EUB0000734a CENPE; settings: Affinity Phenotypic Cellular Source Knowledge https://pubmed.ncbi.nlm.nih.gov/20167803/
[8] = molecular target: Centromere-associated protein E (Homo sapiens) (UniProt Q02224); experiment: Affinity Phenotypic Cellular interaction: (Cell-growth inhibition assays (growth inhibitory effect colon cancer cell line HCT-15)) EUB0000734a CENPE; settings: Affinity Phenotypic Cellular Source Knowledge https://pubmed.ncbi.nlm.nih.gov/20167803/
[9] = molecular target: Centromere-associated protein E (Homo sapiens) (UniProt Q02224); experiment: Affinity Phenotypic Cellular interaction: (Cell-growth inhibition assays (growth inhibitory effect colon cancer cell line OVCAR-5)) EUB0000734a CENPE; settings: Affinity Phenotypic Cellular Source Knowledge https://pubmed.ncbi.nlm.nih.gov/20167803/
[10] = molecular target: Centromere-associated protein E (Homo sapiens) (UniProt Q02224); experiment: Affinity Phenotypic Cellular interaction: (Cell-growth inhibition assays (growth inhibitory effect colon cancer cell line HCC1954)) EUB0000734a CENPE; settings: Affinity Phenotypic Cellular Source Knowledge https://pubmed.ncbi.nlm.nih.gov/20167803/
[11] = molecular target: Centromere-associated protein E (Homo sapiens) (UniProt Q02224); experiment: Affinity Phenotypic Cellular interaction: (Cell-growth inhibition assays (growth inhibitory effect colon cancer cell line 786-O)) EUB0000734a CENPE; settings: 786-0, Affinity Phenotypic Cellular Source Knowledge https://pubmed.ncbi.nlm.nih.gov/20167803/
[12] = molecular target: Centromere-associated protein E (Homo sapiens) (UniProt Q02224); experiment: Affinity Phenotypic Cellular interaction: (Cell-growth inhibition assays (growth inhibitory effect colon cancer cell line HCT-8)) EUB0000734a CENPE; settings: Affinity Phenotypic Cellular Source Knowledge https://pubmed.ncbi.nlm.nih.gov/20167803/
[13] = molecular target: Centromere-associated protein E (Homo sapiens) (UniProt Q02224); experiment: Affinity Phenotypic Cellular interaction: (Cell-growth inhibition assays (growth inhibitory effect colon cancer cell line SW-872)) EUB0000734a CENPE; settings: SW872, Affinity Phenotypic Cellular Source Knowledge https://pubmed.ncbi.nlm.nih.gov/20167803/
[14] = molecular target: Centromere-associated protein E (Homo sapiens) (UniProt Q02224); experiment: Affinity Phenotypic Cellular interaction: (Cell-growth inhibition assays (growth inhibitory effect colon cancer cell line NCI-H292)) EUB0000734a CENPE; settings: Affinity Phenotypic Cellular Source Knowledge https://pubmed.ncbi.nlm.nih.gov/20167803/
[15] = molecular target: Centromere-associated protein E (Homo sapiens) (UniProt Q02224); experiment: Affinity Phenotypic Cellular interaction: (Cell-growth inhibition assays (growth inhibitory effect colon cancer cell line SNU-475)) EUB0000734a CENPE; settings: Affinity Phenotypic Cellular Source Knowledge https://pubmed.ncbi.nlm.nih.gov/20167803/
[16] = molecular target: Centromere-associated protein E (Homo sapiens) (UniProt Q02224); experiment: Affinity Phenotypic Cellular interaction: (Cell-growth inhibition assays (growth inhibitory effect colon cancer cell line MOLT-16)) EUB0000734a CENPE; settings: Affinity Phenotypic Cellular Source Knowledge https://pubmed.ncbi.nlm.nih.gov/20167803/
[17] = molecular target: Centromere-associated protein E (Homo sapiens) (UniProt Q02224); experiment: Affinity Phenotypic Cellular interaction: (Cell-growth inhibition assays (growth inhibitory effect colon cancer cell line C3A)) EUB0000734a CENPE; settings: Affinity Phenotypic Cellular Source Knowledge https://pubmed.ncbi.nlm.nih.gov/20167803/
[18] = molecular target: Centromere-associated protein E (Homo sapiens) (UniProt Q02224); experiment: Affinity Phenotypic Cellular interaction: (Cell-growth inhibition assays (growth inhibitory effect colon cancer cell line SNB-19)) EUB0000734a CENPE; settings: Affinity Phenotypic Cellular Source Knowledge https://pubmed.ncbi.nlm.nih.gov/20167803/
[19] = molecular target: Centromere-associated protein E (Homo sapiens) (UniProt Q02224); experiment: Affinity Phenotypic Cellular interaction: (Cell-growth inhibition assays (growth inhibitory effect colon cancer cell line 22Rv1)) EUB0000734a CENPE; settings: CWR22R, Affinity Phenotypic Cellular Source Knowledge https://pubmed.ncbi.nlm.nih.gov/20167803/
[20] = molecular target: Centromere-associated protein E (Homo sapiens) (UniProt Q02224); experiment: Affinity Phenotypic Cellular interaction: (Cell-growth inhibition assays (growth inhibitory effect colon cancer cell line RXF393)) EUB0000734a CENPE; settings: RXF 393, Affinity Phenotypic Cellular Source Knowledge https://pubmed.ncbi.nlm.nih.gov/20167803/
[21] = molecular target: Centromere-associated protein E (Homo sapiens) (UniProt Q02224); experiment: Affinity Phenotypic Cellular interaction: (Cell-growth inhibition assays (growth inhibitory effect colon cancer cell line COLO 201)) EUB0000734a CENPE; settings: Affinity Phenotypic Cellular Source Knowledge https://pubmed.ncbi.nlm.nih.gov/20167803/
[22] = molecular target: Centromere-associated protein E (Homo sapiens) (UniProt Q02224); experiment: Affinity Phenotypic Cellular interaction: (Cell-growth inhibition assays (growth inhibitory effect colon cancer cell line HT-29)) EUB0000734a CENPE; settings: Affinity Phenotypic Cellular Source Knowledge https://pubmed.ncbi.nlm.nih.gov/20167803/
[23] = molecular target: Centromere-associated protein E (Homo sapiens) (UniProt Q02224); experiment: Affinity Phenotypic Cellular interaction: (Cell-growth inhibition assays (growth inhibitory effect colon cancer cell line SF-268)) EUB0000734a CENPE; settings: Affinity Phenotypic Cellular Source Knowledge https://pubmed.ncbi.nlm.nih.gov/20167803/
[24] = molecular target: Centromere-associated protein E (Homo sapiens) (UniProt Q02224); experiment: Affinity Phenotypic Cellular interaction: (Cell-growth inhibition assays (growth inhibitory effect colon cancer cell line EFM-19)) EUB0000734a CENPE; settings: Affinity Phenotypic Cellular Source Knowledge https://pubmed.ncbi.nlm.nih.gov/20167803/
[25] = molecular target: Centromere-associated protein E (Homo sapiens) (UniProt Q02224); experiment: Affinity Phenotypic Cellular interaction: (Cell-growth inhibition assays (growth inhibitory effect colon cancer cell line SF-539)) EUB0000734a CENPE; settings: Affinity Phenotypic Cellular Source Knowledge https://pubmed.ncbi.nlm.nih.gov/20167803/
[26] = molecular target: Centromere-associated protein E (Homo sapiens) (UniProt Q02224); experiment: Affinity Phenotypic Cellular interaction: (Cell-growth inhibition assays (growth inhibitory effect colon cancer cell line OV-90)) EUB0000734a CENPE; settings: Affinity Phenotypic Cellular Source Knowledge https://pubmed.ncbi.nlm.nih.gov/20167803/
[27] = molecular target: Centromere-associated protein E (Homo sapiens) (UniProt Q02224); experiment: Affinity Phenotypic Cellular interaction: (Cell-growth inhibition assays (growth inhibitory effect colon cancer cell line HEC-1-A)) EUB0000734a CENPE; settings: Affinity Phenotypic Cellular Source Knowledge https://pubmed.ncbi.nlm.nih.gov/20167803/
[28] = molecular target: Centromere-associated protein E (Homo sapiens) (UniProt Q02224); experiment: Affinity Phenotypic Cellular interaction: (Cell-growth inhibition assays (growth inhibitory effect colon cancer cell line SNU-423)) EUB0000734a CENPE; settings: Affinity Phenotypic Cellular Source Knowledge https://pubmed.ncbi.nlm.nih.gov/20167803/
[29] = molecular target: Centromere-associated protein E (Homo sapiens) (UniProt Q02224); experiment: Affinity Phenotypic Cellular interaction: (Cell-growth inhibition assays (growth inhibitory effect colon cancer cell line UACC-257)) EUB0000734a CENPE; settings: Affinity Phenotypic Cellular Source Knowledge https://pubmed.ncbi.nlm.nih.gov/20167803/
[30] = molecular target: Centromere-associated protein E (Homo sapiens) (UniProt Q02224); experiment: Affinity Phenotypic Cellular interaction: (Cell-growth inhibition assays (growth inhibitory effect colon cancer cell line SK-MEL-3)) EUB0000734a CENPE; settings: SK-MEL3, Affinity Phenotypic Cellular Source Knowledge https://pubmed.ncbi.nlm.nih.gov/20167803/
[31] = molecular target: Centromere-associated protein E (Homo sapiens) (UniProt Q02224); experiment: Affinity Phenotypic Cellular interaction: (Cell-growth inhibition assays (growth inhibitory effect thyroid cancer cell line SW579)) EUB0000734a CENPE; settings: Affinity Phenotypic Cellular Source Knowledge https://pubmed.ncbi.nlm.nih.gov/20167803/
[32] = molecular target: Centromere-associated protein E (Homo sapiens) (UniProt Q02224); experiment: Affinity Phenotypic Cellular interaction: (Cell-growth inhibition assays (growth inhibitory effect colon cancer cell line COLO205)) EUB0000734a CENPE; settings: COLO 205, Affinity Phenotypic Cellular Source Knowledge https://pubmed.ncbi.nlm.nih.gov/20167803/
[33] = molecular target: Centromere-associated protein E (Homo sapiens) (UniProt Q02224); experiment: Affinity Phenotypic Cellular interaction: (Cell-growth inhibition assays (growth inhibitory effect colon cancer cell line SN12C)) EUB0000734a CENPE; settings: Affinity Phenotypic Cellular Source Knowledge https://pubmed.ncbi.nlm.nih.gov/20167803/
[34] = molecular target: Centromere-associated protein E (Homo sapiens) (UniProt Q02224); experiment: Affinity Phenotypic Cellular interaction: (Cell-growth inhibition assays (growth inhibitory effect colon cancer cell line G-401)) EUB0000734a CENPE; settings: Affinity Phenotypic Cellular Source Knowledge https://pubmed.ncbi.nlm.nih.gov/20167803/
[35] = molecular target: Centromere-associated protein E (Homo sapiens) (UniProt Q02224); experiment: Affinity Phenotypic Cellular interaction: (Cell-growth inhibition assays (growth inhibitory effect colon cancer cell line LNCaP)) EUB0000734a CENPE; settings: Affinity Phenotypic Cellular Source Knowledge https://pubmed.ncbi.nlm.nih.gov/20167803/
[36] = molecular target: Centromere-associated protein E (Homo sapiens) (UniProt Q02224); experiment: Affinity Phenotypic Cellular interaction: (Cell-growth inhibition assays (growth inhibitory effect colon cancer cell line COLO-320DM)) EUB0000734a CENPE; settings: Affinity Phenotypic Cellular Source Knowledge https://pubmed.ncbi.nlm.nih.gov/20167803/
[37] = molecular target: Centromere-associated protein E (Homo sapiens) (UniProt Q02224); experiment: Affinity Phenotypic Cellular interaction: (Cell-growth inhibition assays (growth inhibitory effect colon cancer cell line DLD-1)) EUB0000734a CENPE; settings: Affinity Phenotypic Cellular Source Knowledge https://pubmed.ncbi.nlm.nih.gov/20167803/
[38] = molecular target: Centromere-associated protein E (Homo sapiens) (UniProt Q02224); experiment: Affinity Phenotypic Cellular interaction: (Cell-growth inhibition assays (growth inhibitory effect colon cancer cell line H4)) EUB0000734a CENPE; settings: Affinity Phenotypic Cellular Source Knowledge https://pubmed.ncbi.nlm.nih.gov/20167803/

Sequence of Centromere-associated protein E (Homo sapiens) (Q02224 whole entry): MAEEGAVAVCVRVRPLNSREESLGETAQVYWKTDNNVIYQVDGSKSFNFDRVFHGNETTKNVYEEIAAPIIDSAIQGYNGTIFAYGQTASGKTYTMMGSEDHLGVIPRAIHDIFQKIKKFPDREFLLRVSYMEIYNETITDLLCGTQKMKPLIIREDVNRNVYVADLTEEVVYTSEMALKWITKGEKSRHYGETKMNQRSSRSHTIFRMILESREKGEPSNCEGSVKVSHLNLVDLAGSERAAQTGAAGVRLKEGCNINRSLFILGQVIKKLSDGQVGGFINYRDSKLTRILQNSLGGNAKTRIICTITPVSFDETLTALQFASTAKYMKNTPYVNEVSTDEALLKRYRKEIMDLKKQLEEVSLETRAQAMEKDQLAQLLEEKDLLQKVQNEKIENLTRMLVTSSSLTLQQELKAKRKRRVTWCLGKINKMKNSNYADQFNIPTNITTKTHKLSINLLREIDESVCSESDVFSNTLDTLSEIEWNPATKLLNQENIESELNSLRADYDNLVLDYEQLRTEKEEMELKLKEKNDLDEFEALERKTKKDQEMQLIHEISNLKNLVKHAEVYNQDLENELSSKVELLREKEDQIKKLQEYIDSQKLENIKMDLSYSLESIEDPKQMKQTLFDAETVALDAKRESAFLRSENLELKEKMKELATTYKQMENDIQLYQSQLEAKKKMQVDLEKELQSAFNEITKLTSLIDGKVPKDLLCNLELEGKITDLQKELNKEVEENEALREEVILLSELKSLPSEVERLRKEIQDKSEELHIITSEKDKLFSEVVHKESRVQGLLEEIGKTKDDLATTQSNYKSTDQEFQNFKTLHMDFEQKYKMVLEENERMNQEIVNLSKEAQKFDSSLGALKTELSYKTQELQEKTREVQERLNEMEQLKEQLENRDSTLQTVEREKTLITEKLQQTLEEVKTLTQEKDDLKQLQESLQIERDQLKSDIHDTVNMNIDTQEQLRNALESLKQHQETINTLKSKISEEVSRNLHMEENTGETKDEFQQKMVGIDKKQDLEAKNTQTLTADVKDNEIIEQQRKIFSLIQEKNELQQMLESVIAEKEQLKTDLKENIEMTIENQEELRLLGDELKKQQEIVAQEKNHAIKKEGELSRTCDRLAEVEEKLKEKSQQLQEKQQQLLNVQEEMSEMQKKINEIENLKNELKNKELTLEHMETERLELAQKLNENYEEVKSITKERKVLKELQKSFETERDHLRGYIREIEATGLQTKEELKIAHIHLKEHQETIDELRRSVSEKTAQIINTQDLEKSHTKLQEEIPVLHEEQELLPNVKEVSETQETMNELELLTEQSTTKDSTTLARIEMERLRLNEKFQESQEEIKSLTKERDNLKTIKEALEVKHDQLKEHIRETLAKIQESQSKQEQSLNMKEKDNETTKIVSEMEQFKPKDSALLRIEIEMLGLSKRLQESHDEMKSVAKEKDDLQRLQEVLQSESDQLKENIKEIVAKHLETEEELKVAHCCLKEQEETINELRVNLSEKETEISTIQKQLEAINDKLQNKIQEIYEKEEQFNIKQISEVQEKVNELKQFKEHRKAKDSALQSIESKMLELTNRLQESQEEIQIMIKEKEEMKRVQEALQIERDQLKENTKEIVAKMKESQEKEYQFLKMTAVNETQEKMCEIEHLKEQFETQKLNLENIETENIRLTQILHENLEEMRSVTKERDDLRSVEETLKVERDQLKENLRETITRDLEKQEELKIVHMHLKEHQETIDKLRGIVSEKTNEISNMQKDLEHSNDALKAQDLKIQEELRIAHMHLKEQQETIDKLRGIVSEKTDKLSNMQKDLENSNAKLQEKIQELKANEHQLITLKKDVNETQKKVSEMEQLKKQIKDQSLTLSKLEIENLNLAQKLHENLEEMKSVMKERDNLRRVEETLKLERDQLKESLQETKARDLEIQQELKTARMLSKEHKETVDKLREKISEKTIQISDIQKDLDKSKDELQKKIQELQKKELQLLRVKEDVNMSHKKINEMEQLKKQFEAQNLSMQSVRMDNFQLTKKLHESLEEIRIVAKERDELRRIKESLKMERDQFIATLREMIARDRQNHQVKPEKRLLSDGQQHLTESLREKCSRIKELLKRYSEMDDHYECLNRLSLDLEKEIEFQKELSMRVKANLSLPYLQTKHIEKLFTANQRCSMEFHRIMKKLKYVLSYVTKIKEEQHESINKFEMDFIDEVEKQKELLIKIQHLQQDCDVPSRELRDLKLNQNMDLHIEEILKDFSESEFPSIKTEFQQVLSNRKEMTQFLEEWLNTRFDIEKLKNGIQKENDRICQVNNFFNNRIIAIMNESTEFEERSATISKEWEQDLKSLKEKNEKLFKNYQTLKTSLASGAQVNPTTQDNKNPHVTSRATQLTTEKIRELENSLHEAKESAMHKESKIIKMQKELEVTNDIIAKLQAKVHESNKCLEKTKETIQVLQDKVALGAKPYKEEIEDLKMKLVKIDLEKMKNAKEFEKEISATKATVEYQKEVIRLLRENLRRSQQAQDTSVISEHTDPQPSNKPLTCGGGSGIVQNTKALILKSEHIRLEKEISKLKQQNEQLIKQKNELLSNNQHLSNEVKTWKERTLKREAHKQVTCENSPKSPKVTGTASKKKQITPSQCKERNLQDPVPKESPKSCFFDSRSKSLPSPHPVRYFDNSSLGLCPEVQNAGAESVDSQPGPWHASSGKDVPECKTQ

GIC50 [1]: 32 nM
GIC50 [2]: 29 nM
GIC50 [3]: 25 nM
GIC50 [4]: 24 nM
GIC50 [5]: 27 nM
GIC50 [6]: 13 nM
GIC50 [7]: 30 nM
GIC50 [8]: 151 nM
GIC50 [9]: 34 nM
GIC50 [10]: 18 nM
GIC50 [11]: 45 nM
GIC50 [12]: 35 nM
GIC50 [13]: 37 nM
GIC50 [14]: 31 nM
GIC50 [15]: 26 nM
GIC50 [16]: 47 nM
GIC50 [17]: 54 nM
GIC50 [18]: 28 nM
GIC50 [19]: 29 nM
GIC50 [20]: 32 nM
GIC50 [21]: 24 nM
GIC50 [22]: 14 nM
GIC50 [23]: 26 nM
GIC50 [24]: 28 nM
GIC50 [25]: 28 nM
GIC50 [26]: 61 nM
GIC50 [27]: 50 nM
GIC50 [28]: 34 nM
GIC50 [29]: 32 nM
GIC50 [30]: 30 nM
GIC50 [31]: 26 nM
GIC50 [32]: 25 nM
GIC50 [33]: 29 nM
GIC50 [34]: 26 nM
GIC50 [35]: 76 nM
GIC50 [36]: 306 nM
GIC50 [37]: 60 nM
GIC50 [38]: 31 nM
SMILES: CC(C)Oc1ccc(C(=O)N[C@H](CNC(=O)CN(C)C)Cc2ccc(-c3cn4cccc([C@H](C)O)c4n3)cc2)cc1Cl
